{"source": "patent US20260008862A1", "about": "“Bispecific Anti-BCMA x Anti-CD3 Antibodies and Uses Thereof” (Regeneron Pharmaceuticals, Inc., priority 2018, published 2026)", "key": {"[1]": {"test_system": "Jurkat/NFATLuc.3C7 cells + RPMI-8226 cells", "assay": "Jurkat/NFATLuc reporter bioassay with RPMI-8226 cells", "type": "cell-based", "conditions": "highest RLU / lowest RLU", "procedure": "Activity of the anti-BCMA×anti-CD3 bispecific antibodies were assessed in a Jurkat/NFATLuc reporter bioassay utilizing several cell lines with varying levels of BCMA surface expression. The Jurkat cells were engineered to express an NFAT-luciferase reporter (Jurkat/NFATLuc.3C7), and 50,000 Jurkat reporter cells were combined with 50,000 BCMA positive (Daudi, MM1-S, NCI-H929, OPM-2, RPMI-8226, MOLP-8, or Raji) or BCMA negative (HEK293) cells in Thermo Nunclon delta 96 well white microwell plates (Thermo Scientific, Cat #136102) in 50 ul of assay media (RPMI media with 10% FBS and 1% P/S/G). Three-fold serial dilutions of the BCMA×CD3 bispecific antibodies (mAb25441 D or mAb25442D), or a bivalent anti-BCMA antibody (mAb21581) were immediately added in 50 μL of assay buffer. The plates were gently agitated and incubated in a 37° C., 5% CO2 incubator for 4-6 hours. NFAT-Luciferase activity was determined using Promega One-Glo (Cat #E6130) and a Perkin Elmer Envision plate reader. RLU were plotted in GraphPad Prism using a four-parameter logistic equation over a 12-point response curve to calculate EC50 values. […] The signal to noise (S:N) is determined by taking the ratio of the highest RLU on the curve to the lowest."}, "[2]": {"test_system": "BCMA-expressing MOLP-8 tumors", "assay": "MOLP-8 + PBMC subcutaneous xenogenic tumor model, dose response (Example 13)", "type": "in vivo, mouse", "procedure": "To determine the in vivo efficacy of anti-BCMA×anti-CD3 bispecific antibodies (Abs), a xenogenic tumor study was performed. Immunodeficient NOD.Cg-Prkdc^scidIl2rg^tm1Wji/SzJ (NSG) mice were subcutaneously implanted with a mixture of 5×10^6 BCMA-expressing MOLP-8 human multiple myeloma tumor cells and 1×10^6 human peripheral blood mononuclear cells (PBMC) isolated from a normal, healthy donor. […] The mice were administered these Abs twice per week for a total of seven doses, and tumor growth was assessed over 56 days. While the BCMA^+ MOLP-8 tumors grew similarly in the vehicle- and CD3-binding control-treated mice, both BCMA×CD3 Abs that were tested prevented the growth of tumors in a dose-dependent manner in vivo.\nImplantation and measurement of xenogenic tumors: NSG mice were subcutaneously implanted with a mixture of 5×10^6 BCMA-expressing MOLP-8 multiple myeloma cells and 1×10^6 PBMC derived from a normal, healthy donor. […] The mice were administered Abs twice per week for a total of seven doses. Tumor growth was measured by caliper twice per week for the duration of the experiment.\nCalculation of xenogenic tumor growth and inhibition: In order to determine tumor volume by external caliper, the greatest longitudinal diameter (length in mm) and the greatest transverse diameter (width in mm) were determined. Tumor volumes based on caliper measurements were calculated by the formula: Volume (mm^3)=(length×width^2)/2."}, "[3]": {"test_system": "BCMA+ OPM-2-luciferase tumors", "assay": "OPM-2-luciferase intravenous xenogenic tumor model, BLI (Example 15)", "type": "in vivo, mouse", "conditions": "0.4 mg/kg on days 21, 25 and 28", "procedure": "(§1) To determine the in vivo efficacy of anti-BCMA×anti-CD3 bispecific antibodies (Abs), a xenogenic tumor study was performed. On day 0, immunodeficient NOD.Cg-Prkdc^scidIl2rg^tm1Wji/SzJ (NSG) mice were intravenously administered 2×10^6 BCMA^+ OPM-2 human multiple myeloma tumor cells that were engineered to also express firefly luciferase (OPM-2-luciferase cells). On day 10, the mice were intraperitoneally injected with 4×10^6 human peripheral blood mononuclear cells (PBMC) from a normal, healthy donor. […] The mice were administered these Abs twice more on days 25 and 28, for a total of three doses. Tumor growth was assessed through day 61 by measuring tumor bioluminescence (BLI) in anesthetized animals. As a positive control, a group of mice (n=5) was given only OPM-2-luciferase cells, but not PBMC or antibody.\nas §1, with “Implantation and measurement” for “To determine the in vivo efficacy”, “of” for “of anti-BCMA×anti-CD3 bispecific antibodies (Abs), a”, “tumors:” for “tumor study was performed.”\nMeasurement of xenogenic tumor growth: BLI imaging was used to measure tumor burden. Mice were injected IP with 150 mg/kg of the luciferase substrate D-luciferin suspended in PBS. Five minutes after this injection, BLI imaging of the mice was performed under isoflurane anesthesia using the Xenogen IVIS system. Image acquisition was carried out with the field of view at D, subject height of 1.5 cm, and medium binning level with automatic exposure time determined by the Living Image Software. BLI signals were extracted using Living Image software: regions of interest were drawn around each tumor mass and photon intensities were recorded as p/s/cm2/sr."}}, "data": [{"substance": "REGN5458: anti-BCMA×anti-CD3 bispecific antibody: BCMA HCVR of mAb21581 (SEQ 66), CD3 HCVR of mAb7221G (SEQ 90), common LCVR SEQ 82", "values": [{"measurement": "S:N", "setting": "[1]", "value": 55}, {"measurement": "Average Tumor Size (mm3) ± SEM on Day 3", "setting": "[2]; 0.04 mg/kg", "value": "9.3 ± 2.4", "unit": "mm3"}, {"measurement": "Average Tumor Size (mm3) ± SEM on Day 7", "setting": "[2]; 0.04 mg/kg", "value": "18.3 ± 5.0", "unit": "mm3"}, {"measurement": "Average Tumor Size (mm3) ± SEM on Day 10", "setting": "[2]; 0.04 mg/kg", "value": "73.9 ± 25.7", "unit": "mm3"}, {"measurement": "Average Tumor Size (mm3) ± SEM on Day 14", "setting": "[2]; 0.04 mg/kg", "value": "255.4 ± 79.7", "unit": "mm3"}, {"measurement": "Average Tumor Size (mm3) ± SEM on Day 17", "setting": "[2]; 0.04 mg/kg", "value": "494.3 ± 144.3", "unit": "mm3"}, {"measurement": "Average Tumor Size (mm3) ± SEM on Day 21", "setting": "[2]; 0.04 mg/kg", "value": "1373.0 ± 366.6", "unit": "mm3"}, {"measurement": "Average Tumor Size (mm3) ± SEM on Day 23", "setting": "[2]; 0.04 mg/kg", "value": "1882.3 ± 551.5", "unit": "mm3"}, {"measurement": "Average Tumor Size (mm3) ± SEM on Day 28", "setting": "[2]; 0.04 mg/kg", "value": "2542.5 ± 613.3", "unit": "mm3"}, {"measurement": "Average Tumor Size (mm3) ± SEM on Day 31", "setting": "[2]; 0.04 mg/kg", "value": "2906.1 ± 532.6", "unit": "mm3"}, {"measurement": "Average Tumor Size (mm3) ± SEM on Day 35", "setting": "[2]; 0.04 mg/kg", "value": "3538.0 ± 0.0", "unit": "mm3"}, {"measurement": "Average Tumor Size (mm3) ± SEM on Day 3", "setting": "[2]; 0.4 mg/kg", "value": "13.5 ± 1.5", "unit": "mm3"}, {"measurement": "Average Tumor Size (mm3) ± SEM on Day 10", "setting": "[2]; 0.4 mg/kg", "value": "0 ± 0", "unit": "mm3"}, {"measurement": "Average Tumor Size (mm3) ± SEM on Day 14", "setting": "[2]; 0.4 mg/kg", "value": "0 ± 0", "unit": "mm3"}, {"measurement": "Average Tumor Size (mm3) ± SEM on Day 17", "setting": "[2]; 0.4 mg/kg", "value": "1.7 ± 1.7", "unit": "mm3"}, {"measurement": "Average Tumor Size (mm3) ± SEM on Day 21", "setting": "[2]; 0.4 mg/kg", "value": "5.3 ± 5.3", "unit": "mm3"}, {"measurement": "Average Tumor Size (mm3) ± SEM on Day 23", "setting": "[2]; 0.4 mg/kg", "value": "9.7 ± 9.7", "unit": "mm3"}, {"measurement": "Average Tumor Size (mm3) ± SEM on Day 28", "setting": "[2]; 0.4 mg/kg", "value": "47.4 ± 47.4", "unit": "mm3"}, {"measurement": "Average Tumor Size (mm3) ± SEM on Day 31", "setting": "[2]; 0.4 mg/kg", "value": "104.7 ± 92.6", "unit": "mm3"}, {"measurement": "Average Tumor Size (mm3) ± SEM on Day 35", "setting": "[2]; 0.4 mg/kg", "value": "375.1 ± 307.5", "unit": "mm3"}, {"measurement": "Average Tumor Size (mm3) ± SEM on Day 42", "setting": "[2]; 0.4 mg/kg", "value": "968.8 ± 689.2", "unit": "mm3"}, {"measurement": "Average Tumor Size (mm3) ± SEM on Day 56", "setting": "[2]; 0.4 mg/kg", "value": "1742.4 ± 635.2", "unit": "mm3"}, {"measurement": "Average Tumor Size (mm3) ± SEM on Day 3", "setting": "[2]; 4 mg/kg", "value": "12.5 ± 1.3", "unit": "mm3"}, {"measurement": "Average Tumor Size (mm3) ± SEM on Day 7", "setting": "[2]; 4 mg/kg", "value": "0 ± 0", "unit": "mm3"}, {"measurement": "Average Tumor Size (mm3) ± SEM on Day 10", "setting": "[2]; 4 mg/kg", "value": "0 ± 0", "unit": "mm3"}, {"measurement": "Average Tumor Size (mm3) ± SEM on Day 14", "setting": "[2]; 4 mg/kg", "value": "0 ± 0", "unit": "mm3"}, {"measurement": "Average Tumor Size (mm3) ± SEM on Day 17", "setting": "[2]; 4 mg/kg", "value": "14.5 ± 7.3", "unit": "mm3"}, {"measurement": "Average Tumor Size (mm3) ± SEM on Day 21", "setting": "[2]; 4 mg/kg", "value": "102.7 ± 66.2", "unit": "mm3"}, {"measurement": "Average Tumor Size (mm3) ± SEM on Day 23", "setting": "[2]; 4 mg/kg", "value": "193.3 ± 117.7", "unit": "mm3"}, {"measurement": "Average Tumor Size (mm3) ± SEM on Day 28", "setting": "[2]; 4 mg/kg", "value": "627.4 ± 318.1", "unit": "mm3"}, {"measurement": "Average Tumor Size (mm3) ± SEM on Day 31", "setting": "[2]; 4 mg/kg", "value": "1018.5 ± 498.3", "unit": "mm3"}, {"measurement": "Average Tumor Size (mm3) ± SEM on Day 35", "setting": "[2]; 4 mg/kg", "value": "1342.9 ± 629.6", "unit": "mm3"}, {"measurement": "Average Tumor Size (mm3) ± SEM on Day 42", "setting": "[2]; 4 mg/kg", "value": "2363.0 ± 890.2", "unit": "mm3"}, {"measurement": "Average Tumor Size (mm3) ± SEM on Day 49", "setting": "[2]; 4 mg/kg, Day 49", "value": "1683.5 ± 1683.5", "unit": "mm3"}, {"measurement": "Average Tumor Size (mm3) ± SEM on Day 56", "setting": "[2]; 4 mg/kg", "value": "3108.1 ± 3108.1", "unit": "mm3"}, {"measurement": "tumor burden (in words)", "setting": "[3]", "value": "reduced tumor burdens to background levels in the majority of animals"}]}]}
